In brackets after ≈: the same amount, converted by molar mass. Structures can show the parent of a compound that is named as a salt. Where two headings read alike, the source gives them in different places.
Columns and labels:
[1] = test system: S. aureus MW2; assay: Minimal inhibitory concentration, S. aureus MW2; assay type: cell-based; details: 16 hour minimal inhibitory concentration at 37° C., read-out: MIC (μM) S. aureus MW2 (MRSA)
Summary of the method: (§1)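 Overnight cultures in LB (TSA for S. aureus) at 37 °C, diluted 1:100 twice, then exposed to twofold serial dilutions of compound from DMSO stock. Plates incubated unshaken 16 h at 37 °C and read at OD600. MIC (µM) is the lowest concentration inhibiting growth.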

[2] = test system: A. baumannii 19606; assay: Minimal inhibitory concentration, A. baumannii 19606; assay type: cell-based; details: 16 hour minimal inhibitory concentration at 37° C., read-out: MIC (μM) A. baumannii 19606
Summary of the method: as §1

[3] = test system: K. pneumoniae 700721; assay: Minimal inhibitory concentration, K. pneumoniae 700721; assay type: cell-based; details: 16 hour minimal inhibitory concentration at 37° C., read-out: MIC (μM) K. pneumoniae 700721
Summary of the method: as §1

[4] = test system: WT E. coli; assay: Minimal inhibitory concentration in wild-type E. coli; assay type: cell-based, Escherichia coli; details: wild-type E. coli, 37° C., 16 hours, read-out: MIC (μM) in WT E. coli
Method: General Procedure for Determination of Minimal Inhibitory Concentrations
Overnight cultures (5 mL) of bacterial strains were grown in LB media or TSA media (for S. aureus) at 37° C. and with shaking at 220 rpm until saturation. The overnight culture was diluted serially 1:100 (50 μL in 5 mL sterile media) and then 1:100 (250 μL in 25 mL sterile media). The 25 mL of diluted culture was then dispensed to a sterile 96 well plate (Corning #3370). 198 μL of culture were dispensed into row A and 100 μL of this culture were dispensed into rows B-H. Aminocoumarin compound (DMSO stock) were added to the first row and then the row was mixed by pipetting. 100 μL of culture from row A were transferred to row B and the serial dilution continued until the final 100 μL from row H were discarded. The plate was incubated without shaking in a 37° C. for 16 hours and then read by visible light spectrophotometer (Molecular Devices) at 600 nm. The minimal inhibitory concentration (MIC) was determined as the lowest concentration of compound concentration that inhibited the growth of bacteria.

[5] = test system: S. aureus RN4220; assay: Minimal inhibitory concentration, S. aureus RN4220; assay type: cell-based; details: 16 hour minimal inhibitory concentration at 37° C., read-out: MIC (μM) S. aureus RN4220
Summary of the method: as §1

[6] = test system: E. coli MC4100; assay: Minimal inhibitory concentration, E. coli MC4100; assay type: cell-based; details: 16 hour minimal inhibitory concentration at 37° C., read-out: MIC (μM) E. coli MC4100 ara+
Summary of the method: as §1

[7] = test system: E. coli 25922; assay: Minimal inhibitory concentration, E. coli 25922; assay type: cell-based; details: 16 hour minimal inhibitory concentration at 37° C., read-out: MIC (μM) E. coli 25922
Summary of the method: as §1

[8] = test system: E. cloacae 13047; assay: Minimal inhibitory concentration, E. cloacae 13047; assay type: cell-based; details: 16 hour minimal inhibitory concentration at 37° C., read-out: MIC (μM) E. cloacae 13047
Summary of the method: as §1

[9] = Staphylococcus aureus, MRSA, 16 h
[10] = Acinetobacter baumannii, 19606, 16 h
[11] = Staphylococcus aureus, RN4220, 16 h

In the case of `CO[C@@H]1[C@@H](OC(N)=O)[C@@H](O)[C@H](Oc2ccc3c(O)c(NC(=O)c4cccc(S(F)(F)(F)(F)F)c4)c(=O)oc3c2C)OC1(C)C` [Compound 26], the MIC [1, 9] was > 100 µM, the MIC [2, 10] was > 50 µM and the MIC ([3]; Klebsiella pneumoniae, 700721) was > 100 µM. For the same molecule, the MIC ([4]; Escherichia coli) was > 300 µM, the MIC [5, 11] was > 100 µM and the MIC ([6]; Escherichia coli, MC4100, 16 h) was > 200 µM. The MIC ([7]; Escherichia coli, 25922, 16 h) was > 200 µM and the MIC ([8]; Enterobacter cloacae, 13047) was > 100 µM.

In the case of `CO[C@@H]1[C@@H](OC(N)=O)[C@@H](O)[C@H](Oc2ccc3c(O)c(NC(=O)c4cccc(-c5cn[nH]c5)c4)c(=O)oc3c2C)OC1(C)C` [Compound 18], the MIC [4] was >300 µM.

In the case of `CO[C@@H]1[C@@H](OC(N)=O)[C@@H](O)[C@H](Oc2ccc3c(O)c(NC(=O)c4ccc(C)o4)c(=O)oc3c2C)OC1(C)C` [Compound 12], the MIC [4] was >300 µM.

With `COC1[C@H](OC(N)=O)C(O)[C@H](Oc2ccc3c(O)c(N)c(=O)oc3c2C)OC1(C)C` (some centres unmarked) [Compound 19, novenamine hydrochloride] the MIC ([4]; Escherichia coli) was > 300 µM.

With `CO[C@@H]1[C@H](OC(N)=O)C(O)[C@H](Oc2ccc3c(O)c(NS(=O)(=O)c4cccc(-c5ccccc5)c4)c(=O)oc3c2C)OC1(C)C` (some centres unmarked) [Compound 36] the MIC ([4]; Escherichia coli) was > 300 µM.

In the case of `CO[C@@H]1[C@@H](OC(N)=O)[C@@H](O)[C@H](Oc2ccc3c(O)c(NC(=O)c4ccc(O)c(C/C=C/CC(=O)O)c4)c(=O)oc3c2C)OC1(C)C` [Compound 80], the MIC [4] was >300 µM.

For `CO[C@@H]1[C@@H](OC(N)=O)[C@@H](O)[C@H](Oc2ccc3c(OCCCO)c(NC(=O)c4ccc(O)c(CC=C(C)C)c4)c(=O)oc3c2C)OC1(C)C` [Compound 216], the MIC [1, 9] was 19 µM (≈ 12.7 µg/mL), the MIC [2, 10] was > 50 µM and the MIC ([3]; Klebsiella pneumoniae, 700721) was > 100 µM. The MIC [5, 11] was 19 µM (≈ 12.7 µg/mL), the MIC ([6]; Escherichia coli, MC4100, 16 h) was > 200 µM and the MIC ([7]; Escherichia coli, 25922, 16 h) was > 200 µM. For the same molecule, the MIC ([8]; Enterobacter cloacae, 13047) was > 100 µM.

In the case of `CO[C@@H]1[C@@H](OC(=O)NC2CCCC2)[C@@H](O)[C@H](Oc2ccc3c(O)c(NC(=O)c4ccc(O)c(CC=C(C)C)c4)c(=O)oc3c2C)OC1(C)C` [Compound 108], the MIC [1] was >100 µM, the MIC [2] was >50 µM and the MIC [3] was >100 µM. The MIC [5] was >100 µM, the MIC [6] was >200 µM and the MIC [7] was >200 µM. The MIC [8] was >100 µM.

For `CO[C@@H]1[C@@H](OC(N)=O)[C@@H](O)[C@H](Oc2ccc3c(O)c(NC(=O)c4cc(Oc5ccccc5)c(O)cc4O)c(=O)oc3c2C)OC1(C)C` [Compound 244], the MIC [1, 9] was 19 µM (≈ 12.4 µg/mL), the MIC [2, 10] was > 50 µM and the MIC ([3]; Klebsiella pneumoniae, 700721) was 38 µM (≈ 24.8 µg/mL). The MIC [5, 11] was 19 µM (≈ 12.4 µg/mL), the MIC ([6]; Escherichia coli, MC4100, 16 h) was 4.8 µM (≈ 3.13 µg/mL) and the MIC ([7]; Escherichia coli, 25922, 16 h) was 38 µM (≈ 24.8 µg/mL). For the same molecule, the MIC ([8]; Enterobacter cloacae, 13047) was > 100 µM.

`CO[C@@H]1[C@@H](OC(N)=O)[C@@H](O)[C@H](Oc2ccc3c(O)c(NC(=O)c4cccc(Oc5ccc(C(F)(F)F)cc5)c4)c(=O)oc3c2C)OC1(C)C` [Compound 251] was tested, and the MIC [1, 9] was 9 µM (≈ 6.2 µg/mL), the MIC [2, 10] was > 50 µM and the MIC ([3]; Klebsiella pneumoniae, 700721) was > 100 µM. For the same molecule, the MIC [5, 11] was 9 µM (≈ 6.2 µg/mL), the MIC ([6]; Escherichia coli, MC4100, 16 h) was 4.5 µM (≈ 3.1 µg/mL) and the MIC ([7]; Escherichia coli, 25922, 16 h) was 9 µM (≈ 6.2 µg/mL). For the same molecule, the MIC ([8]; Enterobacter cloacae, 13047) was > 100 µM.

In the case of `CO[C@@H]1[C@@H](OC(N)=O)[C@@H](O)[C@H](Oc2ccc3c(O)c(NC(=O)c4ccc(O)c(C/C=C/CCC(=O)O)c4)c(=O)oc3c2C)OC1(C)C` [Compound 203], the MIC [1, 9] was > 100 µM, the MIC [2, 10] was > 50 µM and the MIC ([3]; Klebsiella pneumoniae, 700721) was > 100 µM. For the same molecule, the MIC [5, 11] was > 100 µM, the MIC ([6]; Escherichia coli, MC4100, 16 h) was > 200 µM and the MIC ([7]; Escherichia coli, 25922, 16 h) was > 200 µM. The MIC ([8]; Enterobacter cloacae, 13047) was > 100 µM.

With `CO[C@@H]1[C@@H](OC(N)=O)[C@@H](O)[C@H](Oc2ccc3c(O)c(NC(=O)c4ccc(C)c(Oc5ccccc5)c4)c(=O)oc3c2C)OC1(C)C` [Compound 255] the MIC [1, 9] was 5 µM (≈ 3.17 µg/mL), the MIC [2, 10] was > 50 µM and the MIC ([3]; Klebsiella pneumoniae, 700721) was 10 µM (≈ 6.35 µg/mL). It also gave an MIC [5, 11] of 5 µM (≈ 3.17 µg/mL), an MIC ([6]; Escherichia coli, MC4100, 16 h) of 2.4 µM (≈ 1.52 µg/mL) and an MIC ([7]; Escherichia coli, 25922, 16 h) of 5 µM (≈ 3.17 µg/mL). For the same molecule, the MIC ([8]; Enterobacter cloacae, 13047) was 77 µM (≈ 48.9 µg/mL).

With `CCCNC(=O)O[C@H]1[C@H](Oc2ccc3c(O)c(NC(=O)c4ccc(O)c(CC=C(C)C)c4)c(=O)oc3c2C)OC(C)(C)[C@H](OC)[C@H]1O` [Compound 109] the MIC [1] was 1.53 µM (≈ 1 µg/mL), the MIC [2] was 10 µM (≈ 6.55 µg/mL) and the MIC [3] was >100 µM. For the same molecule, the MIC [5] was 1.53 µM (≈ 1 µg/mL), the MIC [6] was >200 µM and the MIC [7] was >200 µM. For the same molecule, the MIC [8] was >100 µM.

From patent publication US11713335B2, “Aminocoumarin compounds and methods of their use” (President and Fellows of Harvard College, priority 2018, dated 2023)
